These results are taken from publication PMC5218480 (PLoS ONE, 2017).

For this test, the system named is MV-4-11 cells. In words: Gene expression microarray analysis (Affymetrix PrimeView) and GSEA. Type of test: cell-based, human. Details: RFU PODN (11730768_x_at) / Fold change /veh PODN (11730768_x_at) / RFU LINC00158 (11744669_a_at) / Fold change /veh LINC00158 (11744669_a_at) / RFU DUSP10 (11751237_a_at) / Fold change /veh DUSP10 (11751237_a_at) / RFU ID3 (11757404_x_at) / Fold change /veh ID3 (11757404_x_at) / RFU PLEKHG5 (11737974_s_at) / Fold change /veh PLEKHG5 (11737974_s_at) / RFU LRRC4B (11730491_at) / Fold change /veh LRRC4B (11730491_at) / RFU GIMAP4 (11747438_a_at) / Fold change /veh GIMAP4 (11747438_a_at) / RFU KRT8 (11758183_x_at) / Fold change /veh KRT8 (11758183_x_at) / RFU CNN1 (11734310_a_at) / Fold change /veh CNN1 (11734310_a_at) / RFU VPS37D (11726825_at) / Fold change /veh VPS37D (11726825_at) / RFU C10orf10 (11716522_x_at) / Fold change /veh C10orf10 (11716522_x_at) / RFU KIR2DL2 /// KIR2DL4 /// KIR2DL5A /// KIR2DL5B /// KIR2DS1 /// KIR2DS2 /// KIR2DS3 /// KIR2DS4 /// KIR3DL3 /// KIR3DL3 /// KIR3DS1 (11738374_at) / Fold change /veh KIR2DL2 /// KIR2DL4 /// KIR2DL5A /// KIR2DL5B /// KIR2DS1 /// KIR2DS2 /// KIR2DS3 /// KIR2DS4 /// KIR3DL3 /// KIR3DL3 /// KIR3DS1 (11738374_at) / RFU C1QL1 (11718748_at) / Fold change /veh C1QL1 (11718748_at) / RFU TMPRSS4 (11747572_a_at) / Fold change /veh TMPRSS4 (11747572_a_at) / RFU HAMP (11756126_x_at) / Fold change /veh HAMP (11756126_x_at) / RFU RNFT2 (11725882_a_at) / Fold change /veh RNFT2 (11725882_a_at) / RFU NR4A2 (11747474_a_at) / Fold change /veh NR4A2 (11747474_a_at) / RFU ABCC12 (11746883_a_at) / Fold change /veh ABCC12 (11746883_a_at) / RFU TMEM136 (11760407_x_at) / Fold change /veh TMEM136 (11760407_x_at) / RFU CLDN22 /// WWC2 (11732394_at) / Fold change /veh CLDN22 /// WWC2 (11732394_at) / RFU HLA-DPB1 (11760878_x_at) / Fold change /veh HLA-DPB1 (11760878_x_at) / RFU SPINT1 (11716480_a_at) / Fold change /veh SPINT1 (11716480_a_at) / RFU GAP43 (11754022_s_at) / Fold change /veh GAP43 (11754022_s_at) / RFU A4GNT (11735810_at) / Fold change /veh A4GNT (11735810_at) / RFU PRB3 (11715151_x_at) / Fold change /veh PRB3 (11715151_x_at) / RFU TUBB4B (11761932_at) / Fold change /veh TUBB4B (11761932_at) / RFU CAPN14 (11732068_a_at) / Fold change /veh CAPN14 (11732068_a_at) / RFU TMCC2 (11721928_a_at) / Fold change /veh TMCC2 (11721928_a_at) / RFU IRGQ (11745062_a_at) / Fold change /veh IRGQ (11745062_a_at) / RFU FAM174B (11720279_a_at) / Fold change /veh FAM174B (11720279_a_at) / RFU TMPRSS4 (11748680_a_at) / Fold change /veh TMPRSS4 (11748680_a_at) / RFU FAM212B (11763350_a_at) / Fold change /veh FAM212B (11763350_a_at) / RFU PLEKHG5 (11743358_a_at) / Fold change /veh PLEKHG5 (11743358_a_at) / RFU ZSCAN30 (11745921_a_at) / Fold change /veh ZSCAN30 (11745921_a_at) / RFU CMKLR1 (11741424_a_at) / Fold change /veh CMKLR1 (11741424_a_at) / RFU LOC101060620 /// MAPK8IP1 (11723275_at) / Fold change /veh LOC101060620 /// MAPK8IP1 (11723275_at) / RFU SPTSSB (11747773_x_at) / Fold change /veh SPTSSB (11747773_x_at) / RFU PRSS12 (11739890_at) / Fold change /veh PRSS12 (11739890_at) / RFU BIN1 (11741810_x_at) / Fold change /veh BIN1 (11741810_x_at) / RFU WNT11 (11732464_a_at) / Fold change /veh WNT11 (11732464_a_at) / RFU C10orf10 (11716521_a_at) / Fold change /veh C10orf10 (11716521_a_at) / RFU C5orf56 (11738089_at) / Fold change /veh C5orf56 (11738089_at) / RFU CYB561 (11721691_x_at) / Fold change /veh CYB561 (11721691_x_at) / RFU ANKRD19P (11752326_a_at) / Fold change /veh ANKRD19P (11752326_a_at) / RFU OR2T12 /// OR2T33 /// OR2T8 (11738714_s_at) / Fold change /veh OR2T12 /// OR2T33 /// OR2T8 (11738714_s_at) / RFU VCAN (11748164_a_at) / Fold change /veh VCAN (11748164_a_at) / RFU JSRP1 (11732532_at) / Fold change /veh JSRP1 (11732532_at) / RFU KRTAP10-11 (11738290_x_at) / Fold change /veh KRTAP10-11 (11738290_x_at) / RFU MYO3A (11730013_a_at) / Fold change /veh MYO3A (11730013_a_at) / RFU EBF3 (11725865_a_at) / Fold change /veh EBF3 (11725865_a_at) / RFU CAMK2N1 (11719241_x_at) / Fold change /veh CAMK2N1 (11719241_x_at) / RFU C5orf56 (11738088_a_at) / Fold change /veh C5orf56 (11738088_a_at) / RFU OLFML3 (11715873_a_at) / Fold change /veh OLFML3 (11715873_a_at) / RFU LOC100653217 /// NTM (11731650_a_at) / Fold change /veh LOC100653217 /// NTM (11731650_a_at) / RFU MAPK11 (11762145_a_at) / Fold change /veh MAPK11 (11762145_a_at) / RFU FIZ1 (11724087_x_at) / Fold change /veh FIZ1 (11724087_x_at) / RFU OASL (11726364_x_at) / Fold change /veh OASL (11726364_x_at) / RFU SOX15 (11748057_x_at) / Fold change /veh SOX15 (11748057_x_at) / RFU CD79A (11719716_a_at) / Fold change /veh CD79A (11719716_a_at) / RFU HIST1H1D (11736915_at) / Fold change /veh HIST1H1D (11736915_at) / RFU CASKIN2 (11723855_a_at) / Fold change /veh CASKIN2 (11723855_a_at) / RFU LOC730098 (11760151_x_at) / Fold change /veh LOC730098 (11760151_x_at) / RFU OR4N2 (11742367_at) / Fold change /veh OR4N2 (11742367_at) / RFU PRRT2 (11749266_a_at) / Fold change /veh PRRT2 (11749266_a_at) / RFU SNX32 (11753110_a_at) / Fold change /veh SNX32 (11753110_a_at) / RFU CDHR5 (11726645_a_at) / Fold change /veh CDHR5 (11726645_a_at) / RFU RCAN1 (11760418_a_at) / Fold change /veh RCAN1 (11760418_a_at) / RFU FAM167A (11723789_a_at) / Fold change /veh FAM167A (11723789_a_at) / RFU FAM26E (11764081_at) / Fold change /veh FAM26E (11764081_at) / RFU ISYNA1 (11749810_s_at) / Fold change /veh ISYNA1 (11749810_s_at) / RFU ACY1 (11761880_at) / Fold change /veh ACY1 (11761880_at) / RFU 11764098_at / Fold change /veh 11764098_at / RFU SAMD14 (11745864_x_at) / Fold change /veh SAMD14 (11745864_x_at) / RFU NPB (11741838_a_at) / Fold change /veh NPB (11741838_a_at) / RFU TMPRSS6 (11731388_a_at) / Fold change /veh TMPRSS6 (11731388_a_at) / RFU KRTAP10-2 (11738614_at) / Fold change /veh KRTAP10-2 (11738614_at) / RFU ARHGAP8 /// PRR5-ARHGAP8 (11727945_x_at) / Fold change /veh ARHGAP8 /// PRR5-ARHGAP8 (11727945_x_at) / RFU KRTAP5-7 /// NADSYN1 (11734609_at) / Fold change /veh KRTAP5-7 /// NADSYN1 (11734609_at) / RFU RASL12 (11751679_a_at) / Fold change /veh RASL12 (11751679_a_at) / RFU CDKN2B (11736163_a_at) / Fold change /veh CDKN2B (11736163_a_at) / RFU PRF1 (11729649_at) / Fold change /veh PRF1 (11729649_at) / RFU, ZNF638 /// ZNF638-IT1 / Fold change vs veh, ZNF638 /// ZNF638-IT1 / RFU, PANK3 / Fold change vs veh, PANK3 / RFU, SH3YL1 / Fold change vs veh, SH3YL1 / RFU, ZEB2 / Fold change vs veh, ZEB2 / RFU, NRIP1 / Fold change vs veh, NRIP1 / RFU, PTTG1IP / Fold change vs veh, PTTG1IP / RFU, CAPN2 / Fold change vs veh, CAPN2 / RFU, MED14 / Fold change vs veh, MED14 / RFU, SNORA58 / Fold change vs veh, SNORA58 / RFU, C1orf63 / Fold change vs veh, C1orf63 / RFU, LRRFIP1 / Fold change vs veh, LRRFIP1 / RFU, NDUFAF7 / Fold change vs veh, NDUFAF7 / RFU, SLC12A2 / Fold change vs veh, SLC12A2 / RFU, IBTK / Fold change vs veh, IBTK / RFU, ESF1 / Fold change vs veh, ESF1 / Fold change vs veh, TMEM50B / RFU, TAOK1 / Fold change vs veh, TAOK1 / RFU, ACBD3 / Fold change vs veh, ACBD3 / RFU, TMA16 / Fold change vs veh, TMA16 / RFU, RWDD3 / Fold change vs veh, RWDD3 / RFU, BCAT1 / Fold change vs veh, BCAT1 / RFU, EDEM3 / Fold change vs veh, EDEM3 / RFU, TMEM33 / Fold change vs veh, TMEM33 / RFU, WDR75 / Fold change vs veh, WDR75 / RFU, AHCTF1 / Fold change vs veh, AHCTF1 / RFU, TFRC / Fold change vs veh, TFRC / RFU, ZDHHC17 / Fold change vs veh, ZDHHC17 / RFU, NOM1 / Fold change vs veh, NOM1 / RFU, ARL8B / Fold change vs veh, ARL8B / RFU, ZBTB11 / Fold change vs veh, ZBTB11 / RFU, TAMM41 / Fold change vs veh, TAMM41 / RFU, KIAA1704 /// LOC100996395 / Fold change vs veh, KIAA1704 /// LOC100996395 / RFU, ING1 / Fold change vs veh, ING1 / RFU, TRMT61B / Fold change vs veh, TRMT61B / RFU, FUBP3 / Fold change vs veh, FUBP3 / RFU, TP53 / Fold change vs veh, TP53 / RFU, TNKS2 / Fold change vs veh, TNKS2 / RFU, ZFP14 / Fold change vs veh, ZFP14 / RFU, ACTR2 / Fold change vs veh, ACTR2 / RFU, PPP3R1 / Fold change vs veh, PPP3R1 / RFU, PIK3R1 / Fold change vs veh, PIK3R1 / RFU, HNRNPA1 / Fold change vs veh, HNRNPA1 / RFU, RNF170 / Fold change vs veh, RNF170 / RFU, ZNF28 / Fold change vs veh, ZNF28 / RFU, RNGTT / Fold change vs veh, RNGTT / RFU, OGT / Fold change vs veh, OGT / RFU, BRD1 / Fold change vs veh, BRD1 / RFU, MARS / Fold change vs veh, MARS / RFU, ZNF655 / Fold change vs veh, ZNF655 / RFU, FAHD1 / Fold change vs veh, FAHD1 / RFU, BDP1 / Fold change vs veh, BDP1 / RFU, LRRCC1 / Fold change vs veh, LRRCC1 / RFU, ARID1A / Fold change vs veh, ARID1A / RFU, ZNF146 / Fold change vs veh, ZNF146 / RFU, ZNF330 / Fold change vs veh, ZNF330 / RFU, GPN3 / Fold change vs veh, GPN3 / RFU, C9orf123 / Fold change vs veh, C9orf123 / RFU, N4BP2L2 / Fold change vs veh, N4BP2L2 / RFU, ARFIP1 / Fold change vs veh, ARFIP1 / RFU, FAM179B / Fold change vs veh, FAM179B / RFU, BCL10 / Fold change vs veh, BCL10 / RFU, UHRF1BP1L / Fold change vs veh, UHRF1BP1L / RFU, BET1 / Fold change vs veh, BET1 / RFU, CNOT2 / Fold change vs veh, CNOT2 / RFU, ZNF268 / Fold change vs veh, ZNF268 / Fold change vs veh, ZNF507 / RFU, DGCR2 / Fold change vs veh, DGCR2 / RFU, WDSUB1 / Fold change vs veh, WDSUB1 / Fold change vs veh, HSP90B1 /// MIR3652 / RFU, ADSS / Fold change vs veh, ADSS / RFU, GK / Fold change vs veh, GK / RFU, ZNF148 / Fold change vs veh, ZNF148 / RFU, TAF9 / Fold change vs veh, TAF9 / RFU, SLC1A5 / Fold change vs veh, SLC1A5 / RFU, SLMO2 / Fold change vs veh, SLMO2 / RFU, ABCC4 / Fold change vs veh, ABCC4 / RFU, LOC101060439 /// RAP1B / Fold change vs veh, LOC101060439 /// RAP1B / RFU, RFX7 / Fold change vs veh, RFX7 / RFU, GTPBP10 / Fold change vs veh, GTPBP10 / RFU, CNEP1R1 / Fold change vs veh, CNEP1R1 / RFU, BIVM-ERCC5 /// ERCC5 / Fold change vs veh, BIVM-ERCC5 /// ERCC5 / RFU, ILF3 / Fold change vs veh, ILF3 / RFU 11762660_at / Fold change /veh 11762660_at / RFU VCAN (11757783_s_at) / Fold change /veh VCAN (11757783_s_at) / RFU DDX43 (11728927_at) / Fold change /veh DDX43 (11728927_at) / RFU KRT8 (11758188_x_at) / Fold change /veh KRT8 (11758188_x_at) / RFU NKD1 (11759106_at) / Fold change /veh NKD1 (11759106_at) / RFU SRD5A1 (11742802_a_at) / Fold change /veh SRD5A1 (11742802_a_at) / RFU TPSAB1 /// TPSB2 (11721975_s_at) / Fold change /veh TPSAB1 /// TPSB2 (11721975_s_at) / RFU GSTM3 (11746129_a_at) / Fold change /veh GSTM3 (11746129_a_at) / RFU IL23R (11737362_x_at) / Fold change /veh IL23R (11737362_x_at) / RFU TMEM51 (11727254_a_at) / Fold change /veh TMEM51 (11727254_a_at) / RFU PIWIL2 (11732686_x_at) / Fold change /veh PIWIL2 (11732686_x_at) / RFU ORM1 (11744905_x_at) / Fold change /veh ORM1 (11744905_x_at) / RFU CCDC152 (11743942_at) / Fold change /veh CCDC152 (11743942_at) / RFU ECM1 (11717891_a_at) / Fold change /veh ECM1 (11717891_a_at) / RFU IL23R (11748794_a_at) / Fold change /veh IL23R (11748794_a_at) / RFU TNFAIP8L3 (11732012_x_at) / Fold change /veh TNFAIP8L3 (11732012_x_at) / RFU MBOAT4 (11741988_at) / Fold change /veh MBOAT4 (11741988_at) / RFU 11764193_at / Fold change /veh 11764193_at / RFU TMEM53 (11763286_at) / Fold change /veh TMEM53 (11763286_at) / RFU MAGEB2 (11727129_at) / Fold change /veh MAGEB2 (11727129_at) / RFU TMEM200A (11744735_a_at) / Fold change /veh TMEM200A (11744735_a_at) / RFU CCDC152 (11751479_a_at) / Fold change /veh CCDC152 (11751479_a_at) / RFU FAM211A (11726209_a_at) / Fold change /veh FAM211A (11726209_a_at) / RFU RGS16 (11746705_a_at) / Fold change /veh RGS16 (11746705_a_at) / RFU VCAN (11755009_s_at) / Fold change /veh VCAN (11755009_s_at) / RFU RHOB (11743442_s_at) / Fold change /veh RHOB (11743442_s_at) / RFU RGS16 (11720943_a_at) / Fold change /veh RGS16 (11720943_a_at) / RFU RGS16 (11720944_at) / Fold change /veh RGS16 (11720944_at) / RFU, VPS4B / Fold change vs veh, VPS4B / RFU, CREB1 / Fold change vs veh, CREB1 / RFU, DNAJC13 / Fold change vs veh, DNAJC13 / RFU, GNAQ / Fold change vs veh, GNAQ / RFU, CDK5R1 / Fold change vs veh, CDK5R1 / RFU, ZRANB3 / Fold change vs veh, ZRANB3 / RFU, CUL4A / Fold change vs veh, CUL4A / RFU, CCNY / Fold change vs veh, CCNY / RFU, UFL1 / Fold change vs veh, UFL1 / RFU, COG3 / Fold change vs veh, COG3 / RFU, DIAPH2 / Fold change vs veh, DIAPH2 / RFU, SKA2 / Fold change vs veh, SKA2 / RFU, AFF3 / Fold change vs veh, AFF3 / RFU, LMF1 / Fold change vs veh, LMF1 / RFU, IPO11 / Fold change vs veh, IPO11 / RFU, DFFB / Fold change vs veh, DFFB / RFU, FOXP1 / Fold change vs veh, FOXP1 / RFU, CARD8 / Fold change vs veh, CARD8 / RFU, STRN3 / Fold change vs veh, STRN3 / RFU, ADK / Fold change vs veh, ADK / RFU, RASSF2 / Fold change vs veh, RASSF2 / RFU, WIPF1 / Fold change vs veh, WIPF1 / RFU, LARP1B / Fold change vs veh, LARP1B / RFU, RASA1 / Fold change vs veh, RASA1 / RFU, RB1 / Fold change vs veh, RB1 / RFU, PPFIA1 / Fold change vs veh, PPFIA1 / RFU, MAT2A / Fold change vs veh, MAT2A / RFU, CCT5 / Fold change vs veh, CCT5 / RFU, WDR92 / Fold change vs veh, WDR92 / RFU, CUX1 / Fold change vs veh, CUX1 / RFU, TTC7A / Fold change vs veh, TTC7A / RFU, TMEM135 / Fold change vs veh, TMEM135 / RFU, DEPTOR / Fold change vs veh, DEPTOR / RFU, CPM / Fold change vs veh, CPM / RFU, DNAJB6 / Fold change vs veh, DNAJB6 / RFU, CACNA2D3 / Fold change vs veh, CACNA2D3 / RFU, DTX4 / Fold change vs veh, DTX4 / RFU, TFCP2 / Fold change vs veh, TFCP2 / RFU, GMCL1 /// GMCL1P1 / Fold change vs veh, GMCL1 /// GMCL1P1 / RFU, AEBP2 / Fold change vs veh, AEBP2 / RFU, SNHG1 /// SNORD22 /// SNORD25 /// SNORD26 /// SNORD27 /// SNORD28 /// SNORD29 /// SNORD31 / Fold change vs veh, SNHG1 /// SNORD22 /// SNORD25 /// SNORD26 /// SNORD27 /// SNORD28 /// SNORD29 /// SNORD31 / Fold change (Aza/veh), C12orf56 (ProbeSet 11735607_a_at) / Fold change (ACY-1035/veh), C12orf56 (ProbeSet 11735607_a_at) / Fold change (Aza/veh), FGFR1OP (ProbeSet 11751329_s_at) / Fold change (ACY-1035/veh), FGFR1OP (ProbeSet 11751329_s_at) / Fold change (Aza/veh), VPS36 (ProbeSet 11739960_a_at) / Fold change (ACY-1035/veh), VPS36 (ProbeSet 11739960_a_at) / RFU SYPL1 (11715823_x_at) / Fold change /veh SYPL1 (11715823_x_at) / RFU IGFBP7 (11715501_s_at) / Fold change /veh IGFBP7 (11715501_s_at) / RFU REEP3 (11722064_at) / Fold change /veh REEP3 (11722064_at) / RFU IGLL1 (11728026_x_at) / Fold change /veh IGLL1 (11728026_x_at): dose or concentration left out as unconfirmed. The following applies: MV-4-11 cells, 48 hours.

As for `Nc1ncn([C@@H]2O[C@H](CO)[C@@H](O)[C@H]2O)c(=O)n1` [azacitidine], the “Fold change /veh RGS16 (11720943_a_at)” value amounted to 1.45.
